From ChEMBL document CHEMBL5233262, “Anti-inflammatory activity of naturally occuring diarylheptanoids - A review” (Bioorg Med Chem, 2021)
≈ marks a conversion by molar mass, not a printed value. One block for each molecule: values may come before it. Residues, ends and D or L forms follow the SMILES beside them. *: point of attachment. Cbz = O=C(OCc1ccccc1)*

Experiments:
J774.1 = assay: Antiinflammatory activity in mouse J774.1 cells assessed as inhibition of LPS-induced NO production incubated for 48 hrs by Griess reagent based analysis; type: functional, cell-based; settings: Mus musculus, J774.1, 48 h
RAW264.7 [1] = assay: Antiinflammatory activity in mouse RAW264.7 cells assessed as inhibition of LPS-induced NO production preincubated for 1 hrs followed by LPS stimulation and measured after 24 hrs by Griess reagent based spectrophotometrical method; type: functional, cell-based
[2] = Inhibition of COX in bovine seminal vesicle assessed as reduction in PGE2 production using arachidonic acid as substrate; type: tissue-based, Bos taurus
[3] = Antioxidant activity assessed as […] radical scavenging activity at 50 uM; type: functional
Rattus norvegicus = assay: Antiinflammatory activity in rat model of carrageenan-induced paw edema assessed as reduction in paw thickness at 10 mg/kg,ip and measured after 4 hrs; type: functional; parameters: scale not given: the % may be the effect or the level left
RAW264.7 [4] = assay: Antiinflammatory activity in mouse RAW264.7 cells assessed as inhibition of LPS-induced NO production for 24 hrs by Griess assay; type: functional, cell-based; settings: RAW264.7, 24 h
Mus musculus = assay: Antiinflammatory activity in ICR mouse model of TPA-induced ear edema assessed as inhibition of ear inflammation at 1 mg,TOP for 30 mins followed by TPA addition and measured after 6 hrs; type: functional; settings: time 390 min, 6.5 h
RAW264.7 [5] = assay: Antiinflammatory activity in mouse RAW264.7 cells assessed as inhibition of LPS-induced NO production incubated for 18 hrs by Griess method; type: functional, cell-based; settings: RAW264.7, 18 h
RAW264.7 [6] = assay: Antiinflammatory activity in mouse RAW264.7 cells assessed as inhibition of LPS-induced NO production preincubated for 0.5 hrs followed by LPS stimulation and measured after 24 hrs by Griess reagent based analysis; type: functional, cell-based
RAW264.7 [7] = assay: Antiinflammatory activity in mouse RAW264.7 cells assessed as inhibition of IFN-gamma and LPS-induced NO production incubated for 24 hrs by Griess assay; type: functional, cell-based; settings: RAW264.7, 24 h
RAW264.7 [8] = assay: Antiinflammatory activity against mouse RAW264.7 cells assessed as inhibition of IFN-gamma and LPS-induced COX2 production preincubated for 2 hrs followed by IFN-gamma and LPS stimulation and measured after 16 hrs by spectrophotometric analysis; type: functional, cell-based
Zingiber officinale = assay: Inhibition of prostaglandin biosynthesis in ginger; type: functional, organism-based
RAW264.7 [9] = assay: Antiinflammatory activity in mouse RAW264.7 cells assessed as inhibition of LPS-induced NO production preincubated for 1 hrs followed by LPS stimulation and measured after 24 hrs by Griess method; type: functional, cell-based
[10] = Antiinflammatory activity in mouse N11 cells assessed as inhibition of LPS-induced NO production preincubated for 1 hrs followed by LPS stimulation and measured after 24 hrs by Griess method; type: functional, cell-based
RAW264.7 [11] = assay: Antiinflammatory activity in mouse RAW264.7 cells assessed as inhibition of LPS-induced TNFalpha level preincubated for 1 hrs followed by LPS stimulation and measured after 24 hrs by ELISA; type: functional, cell-based
[12] = Antiinflammatory activity in mouse N11 cells assessed as inhibition of LPS-induced TNFalpha level preincubated for 1 hrs followed by LPS stimulation and measured after 24 hrs by ELISA; type: functional, cell-based
RAW264.7 [13] = assay: Antiinflammatory activity in mouse RAW264.7 cells assessed as inhibition of LPS-induced NO production at 30 uM preincubated for 0.5 hrs followed by LPS stimulation and measured after 24 hrs by Griess reagent based analysis; type: functional; settings: time 24.5 hrs
[14] = Antioxidant activity assessed as DPPH radical scavenging activity incubated for 30 mins by spectrophotometric analysis; type: functional
[15] = Antioxidant activity assessed as nitroblue tetrazolium superoxide radical scavenging activity incubated for 10 mins by spectrophotometric analysis; type: functional
RAW264.7 [16] = assay: Antiinflammatory activity in mouse RAW264.7 cells assessed as inhibition of LPS-induced NO production preincubated for 1 hrs followed by LPS stimulation and measured after 24 hrs by Griess reagent based analysis; type: functional, cell-based
RAW264.7 [17] = assay: Antiinflammatory activity in mouse RAW264.7 cells assessed as inhibition of LPS-induced NO production incubated for 20 hrs by Griess method; type: functional, cell-based; settings: RAW264.7, 20 h

IC50 (J774.1): 39 µM
Structure (SMILES): COc1cc(O)c([C@@H](/C=C/C[C@@H](O)CCc2ccc(O)cc2)c2ccc(O)cc2)c(O)c1C(=O)[C@@H]1[C@H](/C=C/c2ccc(O)cc2)C[C@H](CCc2ccc(O)cc2)O[C@H]1c1ccc(O)cc1

Structure (SMILES): N=C(NCCC[C@H](N)C(=O)O)N[N+](=O)[O-] [NITROARGININE]
IC50 (RAW264.7 [1]): 39.5 µM

IC50 [2]: 32 µM
Structure (SMILES): NC1=NN(c2cccc(C(F)(F)F)c2)CC1 [BW-755C]

Structure (SMILES): COc1c2cc(c(O[C@@H]3O[C@H](CO)[C@@H](O)[C@H](O)[C@H]3O)c1OC)CCCCC(=O)CCc1ccc(O)c-2c1
Activity [3]: 41% | Activity (Rattus norvegicus): 46.9%

IC50 (RAW264.7 [4]): 27 µM
Structure (SMILES): Oc1ccc(CC[C@H](O)C[C@H](O)CCc2ccc(O)c(O)c2)cc1

Structure (SMILES): OC[C@@]1(O)CO[C@@H](OC[C@H]2O[C@@H](O[C@@H]3CCCCc4ccc(O)c(c4)Oc4ccc(cc4)CC3)[C@H](O)[C@@H](O)[C@@H]2O)[C@@H]1O
ID50 (Mus musculus): 0.81 mg

IC50 (RAW264.7 [5]): > 25 µM
Structure (SMILES): Oc1ccc(CCCC[C@H](O)CCc2ccc(O)cc2)cc1

Structure (SMILES): COc1c2cc(c(O)c1OC)CCCC[C@H](O)CCc1ccc(O)c-2c1
Activity [3]: 41% | Activity (Rattus norvegicus): 51.5%

IC50 (RAW264.7 [6]): 10.5 µM
Structure (SMILES): O=C(CCc1ccc(O)c(O)c1)C[C@H](CCc1ccc(O)c(O)c1)O[C@H]1OC[C@H](O)[C@@H](O)[C@@H]1OC(=O)/C=C/c1ccccc1

IC50 (RAW264.7 [7]): 49.4 µg/mL (≈ 78.8 µM) | IC50 (RAW264.7 [8]): 34.2 µg/mL (≈ 54.6 µM)
Structure (SMILES): OC[C@@]1(O)CO[C@@H](OC[C@H]2O[C@@H](O[C@H](CCCCc3ccc(O)c(O)c3)CCc3ccc(O)c(O)c3)[C@H](O)[C@@H](O)[C@@H]2O)[C@@H]1O

IC50 (RAW264.7 [4]): > 100 µM
Structure (SMILES): COc1cc([C@@H]2O[C@H]([C@@H](O)Cc3ccc(O)cc3)C[C@@H](O)[C@@H]2O)ccc1O

IC50 (RAW264.7 [5]): 13.8 µM
Structure (SMILES): Oc1ccc(CC[C@@H](O)CCCCc2ccc(O)c(O)c2)cc1

IC50 (Zingiber officinale): 4.4 µM
Structure (SMILES): COc1cc(CCC(=O)CC(=O)CCc2ccccc2)ccc1O

Structure (SMILES): COc1c2cc(c(O[C@@H]3O[C@H](CO)[C@@H](O)[C@H](O)[C@H]3O)c1OC)CCCC[C@H](O)CCc1ccc(O)c-2c1
Activity [3]: 41% | Activity (Rattus norvegicus): 47.1%

IC50 (RAW264.7 [9]): 28.3 µM | IC50 [10]: 12.7 µM | IC50 (RAW264.7 [11]): 5.3 µM | IC50 [12]: 4.3 µM
Structure (SMILES): COc1ccc(C/C=C/CCCCc2ccc(OC)c(OC)c2)cc1

Structure (SMILES): O=C1CCc2ccc(cc2)Oc2cc(ccc2O)CC[C@@H](O[C@@H]2O[C@H](CO)[C@@H](O)[C@H](O)[C@H]2O)C1
ID50 (Mus musculus): 0.49 mg

IC50 (RAW264.7 [6]): 15.2 µM
Structure (SMILES): CO[C@@H](CCc1ccc(O)cc1)CC(=O)CCc1ccc(O)cc1

IC50 (RAW264.7 [4]): 17.3 µM
Structure (SMILES): Oc1ccc(CC[C@H]2C[C@@H](O)C[C@@H](c3ccc(O)c(O)c3)O2)cc1

IC50 (RAW264.7 [9]): 47 µM | IC50 [10]: 63.2 µM | IC50 (RAW264.7 [11]): 29.6 µM | IC50 [12]: 29.6 µM
Structure (SMILES): COc1ccc(C/C=C/CCCCc2ccc(O)cc2)cc1

IC50 (J774.1): 181 µM
Structure (SMILES): COc1cc(/C=C/C(=O)CC(=O)CCc2ccc(O)c(OC)c2)ccc1O

Structure (SMILES): OC[C@H]1O[C@@H](O[C@H](CCCCc2ccc(O)c(O)c2)CCc2ccc(O)cc2)[C@H](O)[C@@H](O)[C@@H]1O
inhibition at 30 µM (RAW264.7 [13]): 11%

IC50 (RAW264.7 [5]): 0.1 µM
Structure (SMILES): CC(C)C[C@@H](C=O)NC(=O)[C@H](CC(C)C)NC(=O)[C@H](CC(C)C)NC(=O)OCc1ccccc1 [MG-132] (Cbz-Leu-Leu-Leu-aldehyde)

IC50 (J774.1): 51 µM
Structure (SMILES): COc1cc(O)c([C@@H]2C[C@H](CCc3ccc(O)cc3)O[C@@H](c3ccc(O)cc3)C2)c(O)c1C(=O)/C=C/c1ccc(O)cc1 [EPICALYXIN F]

IC50 [14]: 23.3 µM | IC50 [15]: 11.6 µM | IC50 (RAW264.7 [16]): 10.2 µM | IC50 (RAW264.7 [17]): 5.2 µM | IC50 (RAW264.7 [6]): 20 µM | IC50 (RAW264.7 [7]): 28.4 µg/mL (≈ 85.4 µM) | IC50 (RAW264.7 [8]): 45.3 µg/mL (≈ 136 µM)
Structure (SMILES): Oc1ccc(CCCC[C@@H](O)CCc2ccc(O)c(O)c2)cc1O

Structure (SMILES): COc1c2cc(c(O[C@@H]3O[C@H](CO)[C@@H](O)[C@H](O)[C@H]3O)c1O)CCCCC(=O)CCc1ccc(OC(C)=O)c-2c1
Activity [3]: 41% | Activity (Rattus norvegicus): 46.3%

Structure (SMILES): CCCOC(=O)c1cc(O)c(O)c(O)c1
Activity [3]: 97%
